Laboratory results from patent publication US9150575B2, “Piperidinylpyrazolopyridine derivative” (Daiichi Sankyo Company, Limited, priority 2012, dated 2015).

These compounds were tested against T1, LCAT (Homo sapiens, UniProt P04180) (assay: LCAT Activity Measurement (In Vitro)). Conditions: EC50 of LCAT activation; HDL3 fraction from plasma of a healthy person as enzyme source and acceptor; [14C]cholesterol; 37° C., approximately 16 hours.
T1 construct: The obtained fraction was dialyzed against phosphate-buffered saline (pH 7.4) and used as an enzyme source and an acceptor for LCAT; from tissue; host or cells: HDL3 fraction (1.125<specific gravity<1.210 g/mL) of plasma from a healthy person
T1 sequence (P04180 25-440): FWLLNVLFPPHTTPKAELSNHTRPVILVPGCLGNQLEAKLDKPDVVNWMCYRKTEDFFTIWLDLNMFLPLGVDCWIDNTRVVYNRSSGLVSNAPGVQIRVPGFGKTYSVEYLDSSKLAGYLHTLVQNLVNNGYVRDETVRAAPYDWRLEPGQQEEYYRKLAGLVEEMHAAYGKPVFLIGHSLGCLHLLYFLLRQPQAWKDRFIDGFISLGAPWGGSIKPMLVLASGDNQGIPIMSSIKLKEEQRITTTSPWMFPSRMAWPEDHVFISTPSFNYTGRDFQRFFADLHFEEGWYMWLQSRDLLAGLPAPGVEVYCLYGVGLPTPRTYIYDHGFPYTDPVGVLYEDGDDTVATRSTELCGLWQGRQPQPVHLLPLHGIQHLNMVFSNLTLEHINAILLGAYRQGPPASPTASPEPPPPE
Assay type: biochemical
Description: A fraction composed of HDL3 (1.125<specific gravity<1.210 g/mL) was obtained from the plasma of a healthy person by density gradient centrifugation. The obtained fraction was dialyzed against phosphate-buffered saline (pH 7.4) and used as an enzyme source and an acceptor for LCAT. Each test drug was prepared by dissolution in dimethyl sulfoxide. [14C]Cholesterol containing DTNB (Ellman's reagent, final concentration: 0.5 mM), mercaptoethanol (final concentration: 12.5 mM), and 0.6% bovine serum albumin was added to phosphate-buffered saline (pH 7.4) containing 1 mg/mL HDL3, and the test drug was further added thereto at varying concentrations to adjust the whole amount to 80 μL. This mixture was incubated at 37° C. for approximately 16 hours. Then, a mixed solution of hexane and isopropanol (mixing ratio=3:2) was added thereto to stop the reaction. After stirring, the hexane layer was collected, and this layer was evaporated to dryness. A chloroform solution (concentration: 10 mg/mL) was added thereto, and the mixture was spotted onto a thin-layer silica gel plate and developed using a mixed solution of hexane, diethyl ether, and ethyl acetate (mixing ratio=85:15:2). The radioactivity of a portion corresponding to cholesterol oleate was measured using an imaging analyzer BAS-2500 (manufactured by Fujifilm Corp.). A sample non-supplemented with the test drug was similarly treated and assayed. The EC50 value of LCAT activation was calculated according to the expression given below relative to LCAT activity in the sample non-supplemented with the test drug.
wherein X represents the logarithm of the concentration of the test drug;
Y represents the responsiveness (LCAT activity) of the test drug;
Top represents the maximum value (maximum plateau);
Bottom represents the minimum value (minimum plateau); and
EC50 represents the 50% effective concentration.

EC50 | Compound
650 nM | N#Cc1ccc(N2CCC(c3n[nH]c4c3C(O)(C(F)(F)F)CC(=O)N4)CC2)cn1 (stereo not shown) [Example 19, 5-{4-[4-Hydroxy-6-oxo-4-(trifluoromethyl)-4,5,6,7-tetrahydro-1H-pyrazolo[3,4-b]pyridin-3-yl]piperidin-1-yl}pyridine-2-carbonitrile]
290 nM | Cc1nc(N2CCC(c3n[nH]c4c3C(O)(C(F)(F)F)CC(=O)N4)CC2)ccc1C#N (stereo not shown) [Example 20, 6-{4-[4-Hydroxy-6-oxo-4-(trifluoromethyl)-4,5,6,7-tetrahydro-1H-pyrazolo[3,4-b]pyridin-3-yl]piperidin-1-yl}-2-methylpyridine-3-carbonitrile]
270 nM | N#Cc1ccc(N2CCC(c3n[nH]c4c3C(O)(C(F)(F)F)CC(=O)N4)CC2)nc1Cl (stereo not shown) [Example 21, 2-Chloro-6-{4-[4-hydroxy-6-oxo-4-(trifluoromethyl)-4,5,6,7-tetrahydro-1H-pyrazolo[3,4-b]pyridin-3-yl]piperidin-1-yl}pyridine-3-carbonitrile]
180 nM | N#Cc1cccc(N2CCC(c3n[nH]c4c3C(O)(C(F)(F)F)CC(=O)N4)CC2)n1 (stereo not shown) [Example 22, 6-{4-[4-Hydroxy-6-oxo-4-(trifluoromethyl)-4,5,6,7-tetrahydro-1H-pyrazolo[3,4-b]pyridin-3-yl]piperidin-1-yl}pyridine-2-carbonitrile]
120 nM | N#Cc1cccc(N2CCC(c3n[nH]c4c3C(O)(C(F)(F)F)CC(=O)N4)CC2)c1 (stereo not shown) [Example 23, 3-{4-[4-Hydroxy-6-oxo-4-(trifluoromethyl)-4,5,6,7-tetrahydro-1H-pyrazolo[3,4-b]pyridin-3-yl]piperidin-1-yl}benzonitrile]
150 nM | O=C1CC(O)(C(F)(F)F)c2c(C3CCN(c4nc5ccccc5o4)CC3)n[nH]c2N1 (stereo not shown) [Example 24, 3-[1-(1,3-Benzoxazol-2-yl)piperidin-4-yl]-4-hydroxy-4-(trifluoromethyl)-1,4,5,7-tetrahydro-6H-pyrazolo[3,4-b]pyridin-6-one]
200 nM | O=C1CC(O)(C(F)(F)F)c2c(C3CCN(c4nc5ccccc5s4)CC3)n[nH]c2N1 (stereo not shown) [Example 25, 3-[1-(1,3-Benzothiazol-2-yl)piperidin-4-yl]-4-hydroxy-4-(trifluoromethyl)-1,4,5,7-tetrahydro-6H-pyrazolo[3,4-b]pyridin-6-one]
260 nM | Cc1cncc(N2CCC(c3n[nH]c4c3C(O)(C(F)(F)F)CC(=O)N4)CC2)n1 (stereo not shown) [Example 26, 4-Hydroxy-3-[1-(6-methylpyrazin-2-yl)piperidin-4-yl]-4-(trifluoromethyl)-1,4,5,7-tetrahydro-6H-pyrazolo[3,4-b]pyridin-6-one]
2410 nM | O=C1CC(O)(C(F)(F)F)c2c(C3CCN(c4cccnc4)CC3)n[nH]c2N1 (stereo not shown) [Example 27, 4-Hydroxy-3-[1-(pyridin-3-yl)piperidin-4-yl]-4-(trifluoromethyl)-1,4,5,7-tetrahydro-6H-pyrazolo[3,4-b]pyridin-6-one]
300 nM | COc1ccc(N2CCC(c3n[nH]c4c3C(O)(C(F)(F)F)CC(=O)N4)CC2)nn1 (stereo not shown) [Example 28, 4-Hydroxy-3-[1-(6-methoxypyridazin-3-yl)piperidin-4-yl]-4-(trifluoromethyl)-1,4,5,7-tetrahydro-6H-pyrazolo[3,4-b]pyridin-6-one]
1880 nM | O=C1CC(O)(C(F)(F)F)c2c(C3CCN(c4nccs4)CC3)n[nH]c2N1 (stereo not shown) [Example 29, 4-Hydroxy-3-[1-(1,3-thiazol-2-yl)piperidin-4-yl]-4-(trifluoromethyl)-1,4,5,7-tetrahydro-6H-pyrazolo[3,4-b]pyridin-6-one]
2460 nM | COc1ccnc(N2CCC(c3n[nH]c4c3C(O)(C(F)(F)F)CC(=O)N4)CC2)n1 (stereo not shown) [Example 30, 4-Hydro-3-[1-(4-methoxypyrimidin-2-yl)piperidin-4-yl]-4-(trifluoromethyl)-1,4,5,7-tetrahydro-6H-pyrazolo[3,4-b]pyridin-6-one]
330 nM | N#Cc1ccc(N2CCC(c3n[nH]c4c3C(O)(C(F)(F)F)CC(=O)N4)CC2)nc1 (stereo not shown) [Example 31, 6-{4-[4-Hydroxy-6-oxo-4-(trifluoromethyl)-4,5,6,7-tetrahydro-1H-pyrazolo[3,4-b]pyridin-3-yl]piperidin-1-yl}pyridine-3-carbonitrile]
300 nM | COc1ccc(N2CCC(c3n[nH]c4c3C(O)(C(F)(F)F)CC(=O)N4)CC2)cn1 (stereo not shown) [Example 32, 4-Hydroxy-3-[1-(6-methoxypyridin-3-yl)piperidin-4-yl]-4-(trifluoromethyl)-1,4,5,7-tetrahydro-6H-pyrazolo[3,4-b]pyridin-6-one]
56 nM | N#Cc1ccnc(N2CCC(c3n[nH]c4c3C(O)(C(F)(F)F)CC(=O)N4)CC2)c1 (stereo not shown) [Example 33, 2-{4-[4-Hydroxy-6-oxo-4-(trifluoromethyl)-4,5,6,7-tetrahydro-1H-pyrazolo[3,4-b]pyridin-3-yl]piperidin-1-yl}pyridine-4-carbonitrile]
150 nM | O=C1CC(O)(C(F)(F)F)c2c(C3CCN(c4ccc(Cl)nn4)CC3)n[nH]c2N1 (stereo not shown) [Example 34, 3-[1-(6-Chloropyridazin-3-yl)piperidin-4-yl]-4-hydroxy-4-(trifluoromethyl)-1,4,5,7-tetrahydro-6H-pyrazolo[3,4-b]pyridin-6-one]
380 nM | N#Cc1ccc(N2CCC(c3n[nH]c4c3C(O)(C(F)(F)F)CC(=O)N4)CC2)cc1 (stereo not shown) [Example 35, 4-{4-[4-Hydroxy-6-oxo-4-(trifluoromethyl)-4,5,6,7-tetrahydro-1H-pyrazolo[3,4-b]pyridin-3-yl]piperidin-1-yl}benzonitrile]
420 nM | COc1ccc(N2CCC(c3n[nH]c4c3C(O)(C(F)(F)F)CC(=O)N4)CC2)nc1 (stereo not shown) [Example 36, 4-Hydroxy-3-[1-(5-methoxypyridin-2-yl)piperidin-4-yl]-4-(trifluoromethyl)-1,4,5,7-tetrahydro-6H-pyrazolo[3,4-b]pyridin-6-one]
71 nM | N#Cc1cncc(N2CCC(c3n[nH]c4c3C(O)(C(F)(F)F)CC(=O)N4)CC2)c1 (stereo not shown) [Example 37, 5-{4-[4-Hydroxy-6-oxo-4-(trifluoromethyl)-4,5,6,7-tetrahydro-1H-pyrazolo[3,4-b]pyridin-3-yl]piperidin-1-yl}pyridine-3-carbonitrile]
43 nM | N#Cc1ncc(N2CCC(c3n[nH]c4c3C(O)(C(F)(F)F)CC(=O)N4)CC2)cc1F (stereo not shown) [Example 38, 3-Fluoro-5-{4-[4-hydroxy-6-oxo-4-(trifluoromethyl)-4,5,6,7-tetrahydro-1H-pyrazolo[3,4-b]pyridin-3-yl]piperidin-1-yl}pyridine-2-carbonitrile]
330 nM | COc1ccnc(N2CCC(c3n[nH]c4c3C(O)(C(F)(F)F)CC(=O)N4)CC2)c1 (stereo not shown) [Example 39, 4-Hydroxy-3-[1-(4-methoxypyridin-2-yl)piperidin-4-yl]-4-(trifluoromethyl)-1,4,5,7-tetrahydro-6H-pyrazolo[3,4-b]pyridin-6-one]
1710 nM | COc1cncc(N2CCC(c3n[nH]c4c3C(O)(C(F)(F)F)CC(=O)N4)CC2)c1 (stereo not shown) [Example 40, 4-Hydroxy-3-[1-(5-methoxypyridin-3-yl)piperidin-4-yl]-4-(trifluoromethyl)-1,4,5,7-tetrahydro-6H-pyrazolo[3,4-b]pyridin-6-one]
26 nM | O=C1CC(O)(C(F)(F)F)c2c(C3CCN(c4ccc(C(F)(F)F)nc4)CC3)n[nH]c2N1 (stereo not shown) [Example 41, 4-Hydroxy-4-(trifluoromethyl)-3-{1-[6-(trifluoromethyl)pyridin-3-yl]piperidin-4-yl}-1,4,5,7-tetrahydro-6H-pyrazolo[3,4-b]pyridin-6-one]
140 nM | Cc1cc(N2CCC(c3n[nH]c4c3C(O)(C(F)(F)F)CC(=O)N4)CC2)ncc1C#N (stereo not shown) [Example 42, 6-{4-[4-Hydroxy-6-oxo-4-(trifluoromethyl)-4,5,6,7-tetrahydro-1H-pyrazolo[3,4-b]pyridin-3-yl]piperidin-1-yl}-4-methylpyridine-3-carbonitrile]
56 nM | O=C1CC(O)(C(F)(F)F)c2c(C3CCN(c4ccc(C(F)(F)F)nn4)CC3)n[nH]c2N1 (stereo not shown) [Example 43, 4-Hydroxy-4-(trifluoromethyl)-3-{1-[6-(trifluoromethyl)pyridazin-3-yl]piperidin-4-yl}-1,4,5,7-tetrahydro-6H-pyrazolo[3,4-b]pyridin-6-one]
